Measured values published in PubChem BioAssay AID435016 (Vanderbilt High Throughput Screening Facility, 2010).

These compounds were tested on HEK293 alpha2C/GIRK, thallium flux fluorescence (assay: alpha2C-dependent GIRK activation, antagonist reversal – cell-based, thallium flux, with rauwolscine, mechanism study for alpha2C adrenergic receptor project, dose response (AID 435016)).

SMILES	EC50 [µM]
CCSc1nnc(NC(=O)NC(CC)(C(F)(F)F)C(F)(F)F)s1	3.24
O=c1c(-c2ccc3c(c2)OCCO3)c(C(F)(F)F)oc2cc(O)cc(O)c12	9.18
CCOC(=O)c1ccc(NC(=O)NC(C)C2CCCO2)cc1 (centres undefined)	49.9
C=CCn1c(=S)[nH]c2ccccc2c1=O	3.19
